Assays:
Format in all cases: cell-based
hSTING-HAQ haplotype = biological target: T1, hSTING-HAQ haplotype (Homo sapiens, UniProt Q86WV6, G230A/H232R/R293Q/R71H); assay: THP-1-Dual reporter assay (endogenous hSTING-HAQ); settings: THP-1-Dual cells (hSTING-HAQ), 24 hours
T1 construct: host or cells: THP-1-Dual
Experimental: (§1) The activities of the STING agonists to activate human or mouse STING pathways were evaluated in THP-1-Dual™, THP1-Dual™ KI-hSTING-R232, THP1-Dual™ KI-hSTING-H232 Cells and THP1-Dual™ KI-mSTING Cells. THP-1-Dual™ cells contains hSTING-HAQ haplotype and can be used to evaluate the activity of STING agonists by monitoring the activation of NF-κB pathway and the […] (IFN regulatory factor) pathways. THP1-Dual™ KO-STING cells were generated from THP1-Dual™ cells by stable knockout of the endogenous HAQ STING gene. THP1-Dual™ KI-hSTING-R232 cells, THP1-Dual™ KI-hSTING-H232 cells and THP1-Dual™ KI-mSTING cells were generated by transfecting THP1-Dual™ KO-STING cells with hSTING-R232 or hSTING-H232 or mSTING. Stimulating these reporter cells with a STING agonist activates TRF pathway and induces the production of a secreted Lucia luciferase in the cell culture medium, which can be determined using QUANTI-Luc™ reagent.
(§2) THP-1-Dual™, THP1-Dual™ KI-hSTING-R232, THP1-Dual™ KI-hSTING-H232 and THP1-Dual™ KI-mSTING reporter cells were purchased from Invivogen and maintained in manufacture recommended culture medium with required supplemental antibiotics. On the day of assay, the cells were harvested with Accutase and counted by the Vi-CELL Cell Viability Analyzers. Cells were resuspended in HEK blue detection medium and a total of 10000 cells were seeded in each well of a 384-well flat bottom plate. […] After incubation at 37° C. in a CO2 incubator for 24 hours, 20 μl of cell culture medium per well was transferred into a 384-well white (opaque) plate. 50 μl of QUANTI-Luc™ assay solution was then added to each well and the plate was immediately transferred to an ENVISION® plate reader to measure luminescence (Perkin-Elmer). Relative luminescence readings were converted to fold change of signal using untreated cells as controls. Data was fitted with non-linear regression analysis, using log (agonist) vs. response, variable slope, 4-parameter fit equation using GraphPad Prism. Data was expressed as fold change in signal vs. dose of STING agonist in nM with error bars indicating the Standard Deviation (SD) of the quadruplicates. There result was reported in Table 2 as EC50 (the midpoint of the curve, or concentration at which […] of the maximum effect was observed).

mSTING = biological target: T2, mSTING (Mus musculus, UniProt Q3TBT3); assay: THP1-Dual KI-mSTING reporter assay; set-up: host or cells: THP1-Dual KI-mSTING (from THP1-Dual KO-STING); settings: THP1-Dual KI-mSTING cells, 24 hours; read-out: Reporter assay EC50 (nM) THP-1 mSTING
T2 sequence (Q3TBT3 1-378): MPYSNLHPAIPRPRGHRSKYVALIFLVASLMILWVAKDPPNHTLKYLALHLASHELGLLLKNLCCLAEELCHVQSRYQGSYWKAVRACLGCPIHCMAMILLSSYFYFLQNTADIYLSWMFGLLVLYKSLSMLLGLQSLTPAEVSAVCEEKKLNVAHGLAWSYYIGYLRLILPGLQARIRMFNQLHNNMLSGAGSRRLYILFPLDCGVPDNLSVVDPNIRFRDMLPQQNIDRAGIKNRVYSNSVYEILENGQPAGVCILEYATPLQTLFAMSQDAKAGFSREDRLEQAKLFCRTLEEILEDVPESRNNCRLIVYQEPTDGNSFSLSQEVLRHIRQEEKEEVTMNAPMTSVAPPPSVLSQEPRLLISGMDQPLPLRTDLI
Experimental: as §1
THP-1-Dual™, THP1-Dual™ KI-hSTING-R232, THP1-Dual™ KI-hSTING-H232 and THP1-Dual™ KI-mSTING reporter cells were purchased from Invivogen and maintained in manufacture recommended culture medium with required supplemental antibiotics. On the day of assay, the cells were harvested with Accutase and counted by the Vi-CELL Cell Viability Analyzers. Cells were resuspended in HEK blue detection medium and a total of 10000 cells were seeded in each well of a 384-well flat bottom plate. Serial dilutions of STING agonists free drugs (1:3 serial dilution starting from 5 uM) was added into treatment wells. After incubation at 37° C. in a CO2 incubator for 24 hours, 20 μl of cell culture medium per well was transferred into a 384-well white (opaque) plate. 50 μl of QUANTI-Luc™ assay solution was then added to each well and the plate was immediately transferred to an ENVISION® plate reader to measure luminescence (Perkin-Elmer). Relative luminescence readings were converted to fold change of signal using untreated cells as controls. Data was fitted with non-linear regression analysis, using log (agonist) vs. response, variable slope, 4-parameter fit equation using GraphPad Prism. Data was expressed as fold change in signal vs. dose of STING agonist in nM with error bars indicating the Standard Deviation (SD) of the quadruplicates. There result was reported in Table 2 as EC50 (the midpoint of the curve, or concentration at which […] of the maximum effect was observed).

hSTING H232 = hSTING H232 (Homo sapiens, UniProt Q86WV6); assay: THP1-Dual KI-hSTING-H232 reporter assay (IRF pathway, secreted Lucia luciferase); set-up: host or cells: THP1-Dual KI-hSTING-H232 (from THP1-Dual KO-STING); settings: THP1-Dual KI-hSTING-H232 cells, 24 hours; read-out: Reporter assay EC50 (nM) THP-1-H232
Experimental: as §1, §2

hSTING-R232 = biological target: T3, hSTING-R232 (Homo sapiens, UniProt Q86WV6, H232R); assay: THP1-Dual KI-hSTING-R232 reporter assay (IRF pathway, secreted Lucia luciferase); settings: THP1-Dual KI-hSTING-R232 cells, 24 hours; read-out: Reporter assay EC50 (nM) THP-1-R232
T3 construct: host or cells: THP1-Dual KI-hSTING-R232 (from THP1-Dual KO-STING)
Experimental: as §1, §2

T1 sequence (Q86WV6 whole entry R71H/G230A/H232R/R293Q): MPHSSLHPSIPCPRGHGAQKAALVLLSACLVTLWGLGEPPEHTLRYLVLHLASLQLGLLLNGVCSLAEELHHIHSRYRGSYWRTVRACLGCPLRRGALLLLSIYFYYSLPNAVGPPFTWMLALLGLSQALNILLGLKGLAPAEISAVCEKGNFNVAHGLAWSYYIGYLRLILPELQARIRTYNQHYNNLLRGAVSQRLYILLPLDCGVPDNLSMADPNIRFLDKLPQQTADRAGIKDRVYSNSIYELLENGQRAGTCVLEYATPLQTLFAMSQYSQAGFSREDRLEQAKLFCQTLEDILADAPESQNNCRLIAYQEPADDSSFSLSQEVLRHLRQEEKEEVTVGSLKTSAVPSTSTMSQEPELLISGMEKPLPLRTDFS
hSTING H232, sequence (Q86WV6 whole entry): as the sequence (Q86WV6 whole entry R71H/G230A/H232R/R293Q) above, with H71R, A230G, R232H, Q293R counted along it
T3 sequence (Q86WV6 whole entry H232R): as the sequence (Q86WV6 whole entry R71H/G230A/H232R/R293Q) above, with H71R, A230G, Q293R counted along it

Structure (SMILES)	EC50 (hSTING-HAQ haplotype)	EC50 (mSTING)	EC50 (hSTING H232)	EC50 (hSTING-R232)
CCc1nc(C)oc1C(=O)Nc1nc2cc(C(N)=O)cc(OCCCN3CC4(CNCCO4)C3)c2n1C/C=C/Cn1c(NC(=O)c2cc(C)nn2CC)nc2cc(C(N)=O)cnc21 [Compound 23]	50 to 150 nM	50 to 150 nM	≤ 50 nM	≤ 50 nM
CCc1nc(C)oc1C(=O)Nc1nc2cc(C(N)=O)cc(OCCCN3CC4(C3)CN(C(=O)CNC)CCO4)c2n1C/C=C/Cn1c(NC(=O)c2cc(C)nn2CC)nc2cc(C(N)=O)cc(OC)c21 [Compound 18]	50 to 150 nM	> 150 nM	> 150 nM	50 to 150 nM
CCc1nc(C)oc1C(=O)Nc1nc2cc(C(N)=O)cc(OCCCN3CC4(CNCCO4)C3)c2n1C/C=C/Cn1c(NC(=O)c2cc(C)nn2CC)nc2cc(C(N)=O)cc(OC)c21 [Compound 10]	≤ 50 nM	≤ 50 nM	≤ 50 nM	≤ 50 nM
CCc1nc(C)oc1C(=O)Nc1nc2cc(C(N)=O)cc3c2n1C/C=C/Cn1c(NC(=O)c2cc(C)nn2CC)nc2cc(C(N)=O)cc(c21)OCC1(CNC1)CO3 [Compound 26, (3E)-7-[(4-ethyl-2-methyl-oxazole-5-carbonyl)amino]-25-[(2-ethyl-5-methyl-pyrazole-3-carbonyl)amino]spiro[14,18-dioxa-1,6,8,24-tetrazapentacyclo[17.6.1.16,9.023,26.013,27]heptacosa-3,7,9,11,13 (27), 19 (26), 20,22,24-nonaene-16,3′-azetidine]-11,21-dicarboxamide]	> 150 nM	50 to 150 nM	≤ 50 nM	≤ 50 nM
CCn1nc(C)cc1C(=O)Nc1nc2cc(C(N)=O)cc(OC)c2n1C/C=C/Cn1c(NC(=O)C23CCC(C)(CC2)CC3)nc2cc(C(N)=O)cc(OCCCN3CC4(CNCCO4)C3)c21 [Compound 12]	> 150 nM	> 150 nM	> 150 nM	> 150 nM
COc1cc(C(N)=O)cc2nc(NC(=O)c3oc(C)nc3C)n(C/C=C/Cn3c(NC(=O)c4oc(C)nc4C)nc4cc(C(N)=O)cc(OCCCN5CCC(c6nnc7n6CCNC7)CC5)c43)c12 [Compound 43, (E)-N-(5-carbamoyl-1-(4-(5-carbamoyl-2-(2,4-dimethyloxazole-5-carboxamido)-7-(3-(4-(5,6,7,8-tetrahydro-[1,2,4]triazolo[4,3-a]pyrazin-3-yl)piperidin-1-yl)propoxy)-1H-benzo[d]imidazol-1-yl)but-2-en-1-yl)-7-methoxy-1H-benzo[d]imidazol-2-yl)-2,4-dimethyloxazole-5-carboxamide]	> 150 nM	> 150 nM	> 150 nM	> 150 nM
CCc1cc(C(=O)Nc2nc3cc(C(N)=O)cc(OCCCN4CC5(CNCCO5)C4)c3n2C/C=C/Cn2c(NC(=O)c3cc(C)nn3CC)nc3cc(C(N)=O)cc(OC)c32)n(C)n1 [Compound 15]	> 150 nM	> 150 nM	> 150 nM	> 150 nM
CCc1nc(C)sc1C(=O)Nc1nc2cc(C(N)=O)cc(OC)c2n1C/C=C/Cn1c(NC(=O)c2sc(C)nc2CC)nc2cc(C(N)=O)cc(OCCCN3CCC(c4nnc5n4CCNC5)CC3)c21 [Compound 44]	≤ 50 nM	≤ 50 nM	≤ 50 nM	≤ 50 nM
CCn1nc(C)cc1C(=O)Nc1nc2cc(C(N)=O)cc(OC)c2n1C/C=C/Cn1c(NC(=O)c2cn(C)nc2CN)nc2cc(C(N)=O)cc(OCCCN3CC4(CCCCO4)C3)c21 [Compound 63, (E)-7-(3-(5-oxa-2-azaspiro[3.5]nonan-2-yl)propoxy)-2-(3-(aminomethyl)-1-methyl-1H-pyrazole-4-carboxamido)-1-(4-(5-carbamoyl-2-(1-ethyl-3-methyl-1H-pyrazole-5-carboxamido)-7-methoxy-1H-benzo[d]imidazol-1-yl)but-2-en-1-yl)-1H-benzo[d]imidazole-5-carboxamide]	> 150 nM	> 150 nM	> 150 nM	> 150 nM
CCc1nc(C)oc1C(=O)Nc1nc2cc(C(N)=O)cc(OCCCN3CC4(C3)CN(C(=O)[C@H](N)CC(C)C)CCO4)c2n1C/C=C/Cn1c(NC(=O)c2cc(C)nn2CC)nc2cc(C(N)=O)cc(OC)c21 [Compound 20]	50 to 150 nM	≤ 50 nM	50 to 150 nM	≤ 50 nM
CCn1nc(C)cc1C(=O)Nc1nc2cc(C(N)=O)cc(OC)c2n1C/C=C/Cn1c(NC(=O)c2cc(C)nn2CC)nc2cc(C(N)=O)cc(OCCCN3CC4(C3)CN(C(=O)[C@@H](N)CC(C)C)CCO4)c21 [Compound 16]	≤ 50 nM	≤ 50 nM	≤ 50 nM	≤ 50 nM
CCn1nc(C)cc1C(=O)Nc1nc2cc(C(N)=O)cc(OC)c2n1C/C=C/Cn1c(NC(=O)Cc2cnc(C)o2)nc2cc(C(N)=O)cc(OCCCN3CC4(CNCCO4)C3)c21 [Compound 7]	> 150 nM	> 150 nM	> 150 nM	> 150 nM
CCn1nc(C)cc1C(=O)Nc1nc2cc(C(N)=O)cc(OC)c2n1C/C=C/Cn1c(NC(=O)c2oc(C)nc2C)nc2cc(C(N)=O)cc(OCCCN3CC4(CNCCO4)C3)c21 [Compound 11]	> 150 nM	≤ 50 nM	≤ 50 nM	≤ 50 nM
CCc1nc(C)oc1C(=O)Nc1nc2cc(C(N)=O)cc3c2n1C/C=C/Cn1c(NC(=O)c2oc(C)nc2CC)nc2cc(C(N)=O)cc(c21)OCC1(CNC1)CO3 [Compound 25]	> 150 nM	≤ 50 nM	≤ 50 nM	≤ 50 nM
CCn1nc(C)cc1C(=O)Nc1nc2cc(C(N)=O)cc(OC)c2n1C/C=C/Cn1c(NC(=O)Cc2cc(C)n(C)n2)nc2cc(C(N)=O)cc(OCCCN3CC4(CNCCO4)C3)c21 [Compound 9]	> 150 nM	> 150 nM	> 150 nM	> 150 nM
